Test results taken from the supplement of paper PMC10307832.

Legend:
Experiment in all cases: relative viability (nuclei count vs DMSO), 5 days (fraction); higher = more cells survive
NCI-H1651 = system: NCI-H1651
In short: (§1)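 Medians of duplicate plates are given as relative viability. That measure is the nuclei count in treated wells divided by the count in vehicle wells. Counts were taken on 4× images of lung cancer cell lines in 1536-well plates, 5 days after pin-tool dosing the day after seeding with one drug alone or a fixed anchor-drug dose plus five library-drug doses (not always all listed) in √10 steps.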

NCI-H838 = system: NCI-H838
In short: as §1

NCI-H661 = system: NCI-H661
In short: as §1

NCI-H1944 = system: NCI-H1944
In short: as §1

NCI-H358 = system: NCI-H358
In short: as §1

NCI-H2087 = system: NCI-H2087
In short: as §1

PC-3 [JPC-3] = system: PC-3 [JPC-3]
In short: as §1

NCI-H2342 = system: NCI-H2342
In short: as §1

NCI-H596 = system: NCI-H596
In short: as §1

LU99A = system: LU99A
In short: as §1

NCI-H1666 = system: NCI-H1666
In short: as §1

In the case of `O=c1cc(-c2cccc3c2Sc2ccccc2S3)oc(N2CCOCC2)c1` + CC(=O)Nc1cccc(-n2c(=O)n(C3CC3)c(=O)c3c(Nc4ccc(I)cc4F)n(C)c(=O)c(C)c32)c1 [Trametinib] (partner 0.02 µM), the relative viability (NCI-H1651; first compound 0.08 µM) is reported as 0.906, the relative viability (NCI-H1651; first compound 0.253 µM) is reported as 0.709 and the relative viability (NCI-H1651; first compound 0.8 µM) is reported as 0.843. The relative viability (NCI-H1651; first compound 2.53 µM) was 0.803, the relative viability (NCI-H1651; first compound 8 µM) was 0.832 and the relative viability (NCI-H838; first compound 0.08 µM) was 0.462. For the same compound, the relative viability (NCI-H838; first compound 0.253 µM) was 0.673, the relative viability (NCI-H838; first compound 0.8 µM) was 0.49 and the relative viability (NCI-H838; first compound 2.53 µM) was 0.502. It also gave a relative viability (NCI-H838; first compound 8 µM) of 0.47, a relative viability (NCI-H661; first compound 0.08 µM) of 0.565 and a relative viability (NCI-H661; first compound 0.253 µM) of 0.649. The relative viability (NCI-H661; first compound 0.8 µM) was 0.527, the relative viability (NCI-H661; first compound 2.53 µM) was 0.514 and the relative viability (NCI-H661; first compound 8 µM) was 0.471. The relative viability (NCI-H1944; first compound 0.08 µM) was 0.365, the relative viability (NCI-H1944; first compound 0.253 µM) was 0.414 and the relative viability (NCI-H1944; first compound 0.8 µM) was 0.396. It also gave a relative viability (NCI-H1944; first compound 2.53 µM) of 0.428, a relative viability (NCI-H1944; first compound 8 µM) of 0.428 and a relative viability (NCI-H358; first compound 0.08 µM) of 0.123. For the same compound, the relative viability (NCI-H358; first compound 0.253 µM) was 0.134, the relative viability (NCI-H358; first compound 0.8 µM) was 0.123 and the relative viability (NCI-H358; first compound 2.53 µM) was 0.111. For the same compound, the relative viability (NCI-H358; first compound 8 µM) was 0.152, the relative viability (NCI-H2087; first compound 0.08 µM) was 0.143 and the relative viability (NCI-H2087; first compound 0.253 µM) was 0.212. It also gave a relative viability (NCI-H2087; first compound 0.8 µM) of 0.172, a relative viability (NCI-H2087; first compound 2.53 µM) of 0.172 and a relative viability (NCI-H2087; first compound 8 µM) of 0.179. The relative viability (PC-3 [JPC-3]; first compound 0.08 µM) was 0.542, the relative viability (PC-3 [JPC-3]; first compound 0.253 µM) was 0.732 and the relative viability (PC-3 [JPC-3]; first compound 0.8 µM) was 0.53. For the same compound, the relative viability (PC-3 [JPC-3]; first compound 2.53 µM) was 0.617, the relative viability (PC-3 [JPC-3]; first compound 8 µM) was 0.673 and the relative viability (NCI-H2342; first compound 0.08 µM) was 0.744. For the same compound, the relative viability (NCI-H2342; first compound 0.253 µM) was 0.897, the relative viability (NCI-H2342; first compound 0.8 µM) was 0.736 and the relative viability (NCI-H2342; first compound 2.53 µM) was 0.716. The relative viability (NCI-H2342; first compound 8 µM) was 0.935, the relative viability (NCI-H596; first compound 0.08 µM) was 0.819 and the relative viability (NCI-H596; first compound 0.253 µM) was 0.925. For the same compound, the relative viability (NCI-H596; first compound 0.8 µM) was 0.823, the relative viability (NCI-H596; first compound 2.53 µM) was 0.934 and the relative viability (NCI-H596; first compound 8 µM) was 0.801. For the same compound, the relative viability (LU99A; first compound 0.08 µM) was 0.531, the relative viability (LU99A; first compound 0.253 µM) was 0.624 and the relative viability (LU99A; first compound 0.8 µM) was 0.553. For the same compound, the relative viability (LU99A; first compound 2.53 µM) was 0.538, the relative viability (LU99A; first compound 8 µM) was 0.52 and the relative viability (NCI-H1666; first compound 0.08 µM) was 0.828. The relative viability (NCI-H1666; first compound 0.253 µM) was 0.916, the relative viability (NCI-H1666; first compound 0.8 µM) was 0.864 and the relative viability (NCI-H1666; first compound 2.53 µM) was 0.89. The relative viability (NCI-H1666; first compound 8 µM) was 0.793.
